“And” between values parts separate entries of the source, which are not always exact repeats. Identical values can stand only once.
Tested on: mixed inoculum of Aureobasidium pullulans, Fusarium solani, Penicillium funicularum, Scopulariopsis brevicaulis and Streptoverticillium waksmanii
Experiment: Soil burial test of plasticised PVC strips containing biocide: weight loss after 20 weeks

Compound	Actual % Weight Loss
CCCCCCCCn1sccc1=O [OIT, N-n-octyl isothiazolin-3-one]	3.47% and 4.516% and 4.992% and 5.465%
Zinc Omadine [ZO]	4.011% and 3.557% and 3.318% and 2.179%

Source: US6455558B1, “Biocide composition and use” (Avecia Limited, priority 1998, dated 2002)
